Earlier results, collected in patent US20250340675A1 (priority 2022, published 2025).

Assays:
mice [1] = conditions: oral administration in mice
mice [2] = conditions: neurotoxic adverse effects; oral administration in mice
[3] = in vivo
albino mice = conditions: mouse, in vivo

OCCCCO [1,4-Butanediol]
median lethal dose (LD50) (mice [1]): 1,525 mg/kg | no observed adverse effect level (NOAEL) (mice [2]): 100 mg/kg per day

Hyaluronic acid [HA]
half-life ([3]; human): 24÷48 hours | average turnover rate [3]: 5 g/day

O=C(O)c1cc(O)c(O)c(O)c1 [gallic acid, 3,4,5-trihydroxy benzoic acid]
LD50 (acute toxicity) (albino mice): greater than 2000 mg/kg
